{"source": "patent US5298502A", "about": "“Method and composition for photodynamic treatment and detection of tumors” (priority 1991, dated 1994)", "key": {"[1]": {"test_system": "SMT-F tumor", "assay": "Photodynamic treatment of SMT-F tumor in mice fed the agent (Example 10)", "type": "in vivo, female DBA/2 mice", "from_the_text": "In this Example preliminary routine dosage experiments, using agent 6c of Example 6, were made, using female DBA/2 mice, four to six weeks old (14-18 grams). For tumor implantation into these animals, SMT-F tumor was aseptically removed from donor animals and cut into 1 mm^3 fragments. These tumor pieces were placed in Hank's Balanced Salt Solution containing penicillin and streptomycin. Tumor pieces were implanted via a torchar into the center of the right flank of shaved mice. […] The skin covering and surrounding the tumor was shaved and depilated two to three hours prior to light treatment.\nThe light treatment employed red light centered on 630 nm obtained from 1000 watt Xenon arc lamp system (Oriel Corporation) using a condenser which focused the light into a trifurcated fiberoptic bundle. A collimating lens was placed at the end of each fiberoptic in order to focus the image of the fiberoptic bundle on the treatment area: a spot of […] (1.33 cm^2). The design of the fiberoptic bundle ensured uniform distribution of light over this area. The output spectrum of the arc lamp was tuned to a peak intensity of 630 nm (602-670 nm range) using a water filter, a heat reflecting filter, and a 610 nm long pass filter. Light was delivered at a power density of 135 mW/cm^2. The possibility of tissue hyperthermia induced by this power density was evaluated by placing thermocouples at selected depths into the tumor during treatment, and measuring any temperature rise. No increase in tumor temperature greater than 2.4° C. (final temperature of 37.5°C.) was observed. During the light treatment the mice were restrained without anesthesia in specially designed holders and the tumors and surrounding skin were exposed to light to different degrees, from 0 to 600 J/cm^2. […]\nIn the course of the experiment the porphyrin fluorescence at 650 nm of the tumors (on exposure to fluorescing-inducing light at 630 nm) was measured with a fluorescence photometer."}, "[2]": {"assay": "Tolerance of intraperitoneal injection in mice", "settings": "mouse, in vivo, ip, 60% corn oil and 40% DMSO, read-out: tolerated dose", "procedure": "c. In tests of the agent injected intraperitoneally in a mixture of 60% corn oil and 40% DMSO it was determined that the mice could tolerate a dose of 100 mg/kg."}, "[3]": {"test_system": "DBA/2 Ha mice with SMT-F subcutaneous tumors", "assay": "Proto IX content of tissues of tumor-bearing mice fed the agent (Example 6)", "type": "in vivo", "procedure": "In this Example the enzyme-inhibiting agents were added to the feed of tumor-bearing mice; for some of the mice, used as a control, no agent was added to the feed. The mice were then sacrificed and their kidneys, intestines, adrenal glands, liver and tumor were removed and analyzed for their content of Proto IX. The following enzyme-inhibiting agents were employed: [drawing 10]\nMore particularly, the mice were DBA/2 Ha mice which had been injected with SMT-F subcutaneous tumors on Day 0 in the right shoulder. The mice, individually housed, received untreated Purina Rodent Chow 5001 Mash on Day 1; thereafter on Days 2 through 10 the mice received the same Mash treated with 2000 ppm of the inhibiting agent being tested (or, for the controls, the same untreated Mash). The treatment of the Mash was effected by blending it with a small amount of an acetone solution of the agent to be tested. The mice were then sacrificed on Day 10, except for the mouse treated with the agent designated as 6j; the latter was sacrificed on Day 7. The tissues were refrigerated at 4° C. overnight, then blotted dry, and the fresh weight of each tissue sample was recorded. The tissues were then homogenized in 5 mL, or lo mL in the cases of intestines and liver, of acetone-0.1 N NH4 OH (9:I, v/v). The homogenates were then centrifuged at 1500 g and the supernatants were analyzed on a SPEX FAII2 spectrofluorometer; excitation 400 nm, emission 630 nm wavelengths, the optima for Proto IX. Proto IX accumulation was determined as CPS (fluorescent counts per second emitted) per gram of tissue. The results are tabulated below (results are averages for two mice for each treatment, except for treatments with agents 6f, 6h, 6i and 6j in each of which only one mouse was treated): […]"}, "[4]": {"test_system": "HeLa cells", "assay": "Proto IX production in HeLa cells, extract of cells alone (Example 7)", "type": "cell-based", "settings": "Homo sapiens, 100 uM agent, first formula (background-subtracted), read-out: increase in the amount of Proto IX relative to the control", "procedure": "In a series of experiments along the lines of Examples 1 and 2, cultures of HeLa cells were incubated in the presence of 100 uM of various treating agents, listed below. The percentage given, next to each treating agent, indicates the increase in the amount of Proto IX produced in the presence of that treating agent relative to the amount produced by the control in the same experiment.\nAs in Examples 1 and 2, the data for this Example 7 were based on measurements of fluorescence (e.g. in counts per second, \"cps\"). In this Example, however, the measurements were made on an extract of the cells alone (in contrast to Examples 1 and 2 in which the disrupted cells and culture medium together were extracted), the fluorometric medium was the one described in Example 5 (containing 1% Tween-20, 50 mM Tris-HCl, 1 mM EDTA and 1 mM dithioerythritol, pH 8.5), and a cps measurement of the fluorometric medium per se was also made. In calculating the foregoing data for this Example, the following formula was used to calculate the percentage increases: [formula] where Ca is the counts per second for the sample resulting from treatment with the agent, Cc is the counts per second for the control sample, and Cm is the counts per second for the fluorometric medium per se (i.e. the background fluoroescence). On reviewing the data it was observed that Cc -Cm for this set of experiments was […] compared to Cm; for instance, individual measured values were 49025 and 52069 for Cc and 4295 for Cm. […] Accordingly, the data were recalculated using the formula: [formula] with the following results: 6a 336%; 5b 148%; 6c 154%; 6d 510%; 6e 320%; 6f 280%; 6g 329%; 6h 178%; 6i 171%; 6j 185%; 7a 118%; 7b 142%; 7c 103%; 7d 128%; 7e 173%; 7f 118%; 7q 155%; 7h 118%."}, "[5]": {"settings": "2000 ppm in feed Days 2-10, sacrificed Day 10 (6j Day 7)"}}}
{"smiles": "Cc1nn(-c2cc(NS(C)(=O)=O)c(Cl)cc2Cl)c(=O)n1C(F)F", "note": "[Agent 6c]", "values": [{"measurement": "mice with tumors cured (tumor free at 35 days post-treatment)", "setting": "[1]; 4000 ppm in feed for three days, 450 J/cm^2 of light", "result": "about 33%"}, {"measurement": "porphyrin fluorescence of the tumors at 650 nm", "setting": "[1]; agent in feed", "result": "All animals showed an increase in tumor fluorescence"}, {"measurement": "tumor regrowth between 35 and 91 days post-treatment", "setting": "[1]; mouse, in vivo", "result": "No tumor regrowth"}, {"measurement": "MTD", "setting": "[2]", "result": 100, "unit": "mg/kg"}, {"measurement": "concentration of Proto IX in tissue, Adrenal", "setting": "[3]; 2000 ppm in feed", "result": "126 ug of Proto IX per gram of tis"}, {"measurement": "concentration of Proto IX in tissue, Intestine", "setting": "[3]; 2000 ppm in feed", "result": "91 ug of Proto IX per gram of tis"}, {"measurement": "concentration of Proto IX in tissue, Kidneys", "setting": "[3]; 2000 ppm in feed", "result": "148 ug of Proto IX per gram of tis"}, {"measurement": "concentration of Proto IX in tissue, Liver", "setting": "[3]; 2000 ppm in feed", "result": "25 ug of Proto IX per gram of tis"}, {"measurement": "concentration of Proto IX in tissue, Tumor", "setting": "[3]; 2000 ppm in feed", "result": "131 ug of Proto IX per gram of tis"}, {"measurement": "Proto IX Mean Cps per gram, Adrenal", "setting": "[3]; [5]", "result": 13790, "unit": "Cps per gram × 10^3"}, {"measurement": "Proto IX Mean Cps per gram, Kidneys", "setting": "[3]; [5]", "result": 16186, "unit": "Cps per gram × 10^3"}, {"measurement": "Proto IX Mean Cps per gram, Liver", "setting": "[3]; [5]", "result": 2739, "unit": "Cps per gram × 10^3"}, {"measurement": "Proto IX Mean Cps per gram, Tumor", "setting": "[3]; [5]", "result": 14336, "unit": "Cps per gram × 10^3"}, {"measurement": "Weight of Tumor as excised", "setting": "[3]; [5]", "result": 157, "unit": "mg"}, {"measurement": "Proto IX Mean Cps per gram, Intestine", "setting": "[3]; 2000 ppm in feed, samples diluted with 3 parts basic acetone to one part sample", "result": 9937, "unit": "Cps per gram × 10^3"}, {"measurement": "activation at 100 µM", "setting": "[4]", "result": 297, "unit": "%"}]}
